# From patent US9133158B2, “Bicyclic dihydroisoquinoline-1-one derivatives” (Hoffmann-La Roche Inc., priority 2011, dated 2015)
# Experiments:
# human CYP11B2 = target: T1, human CYP11B2 (Homo sapiens, UniProt P19099); test: G-402 cellular enzyme assay, human CYP11B2 (aldosterone release, HTRF); type: cell-based; settings: G-402 cells, 1 μM Deoxycorticosterone
# T1 construct: expressed in transfected cells
# T1 sequence (P19099 25-503): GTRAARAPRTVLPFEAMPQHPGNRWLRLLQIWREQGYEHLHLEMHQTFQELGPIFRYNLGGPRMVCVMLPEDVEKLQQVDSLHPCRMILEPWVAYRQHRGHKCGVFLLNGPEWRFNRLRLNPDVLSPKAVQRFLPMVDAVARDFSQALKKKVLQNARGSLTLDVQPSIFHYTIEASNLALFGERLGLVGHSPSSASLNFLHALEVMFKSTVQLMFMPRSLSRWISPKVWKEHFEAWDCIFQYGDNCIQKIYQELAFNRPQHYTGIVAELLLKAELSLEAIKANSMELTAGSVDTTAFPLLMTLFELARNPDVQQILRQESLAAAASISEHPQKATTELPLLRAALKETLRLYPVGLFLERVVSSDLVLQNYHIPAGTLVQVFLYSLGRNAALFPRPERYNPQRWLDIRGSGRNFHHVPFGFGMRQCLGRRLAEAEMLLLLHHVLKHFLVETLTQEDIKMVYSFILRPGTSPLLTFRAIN
# Procedure, shortened: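 Steroid output from supernatants, quantified by HTRF as cortisol for CYP11B1 or aldosterone for CYP11B2, gave EC50 values by least-squares 4-parameter MMF fitting against inhibitor concentration. Stably transfected G-402 cells carrying the human enzyme received 1 μM deoxycortisol or 1 μM deoxycorticosterone respectively, 16 h, DMEM/F12 with 2.5% charcoal-stripped FCS.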
# human CYP11B1 = target: T2, human CYP11B1 (Homo sapiens, UniProt P15538); test: G-402 cellular enzyme assay, human CYP11B1 (cortisol release, HTRF); type: cell-based; settings: G-402 cells, 1 μM Deoxycortisol
# T2 construct: expressed in transfected cells
# T2 sequence (P15538 25-503): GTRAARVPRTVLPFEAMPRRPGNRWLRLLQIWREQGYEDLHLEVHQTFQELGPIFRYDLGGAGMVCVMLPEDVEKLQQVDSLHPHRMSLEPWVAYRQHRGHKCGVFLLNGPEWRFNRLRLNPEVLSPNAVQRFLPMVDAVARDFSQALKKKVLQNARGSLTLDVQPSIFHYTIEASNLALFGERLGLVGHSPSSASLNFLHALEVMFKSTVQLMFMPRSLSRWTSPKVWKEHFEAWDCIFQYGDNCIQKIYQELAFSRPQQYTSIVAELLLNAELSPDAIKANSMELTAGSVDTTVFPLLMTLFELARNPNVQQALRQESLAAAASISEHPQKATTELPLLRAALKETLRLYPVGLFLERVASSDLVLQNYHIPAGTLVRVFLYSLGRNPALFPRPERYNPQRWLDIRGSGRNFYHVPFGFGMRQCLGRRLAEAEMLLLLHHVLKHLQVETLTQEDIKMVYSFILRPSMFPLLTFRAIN
# Description: Herein we identified the use of the G-402 cell line as a host cell to ectopically express (transiently or stably) enzymes of the CYP11 family. Specifically we developed stable G-402 cells expressing ectopically human CYP11B1, human CYP11B2, human CYP11A1, cynmolgus CYP11B1 or cynomolgus CYP11B2 enzyme activity. Importantly the identified cell line G-402 expresses co-factors (adrenodoxin and adrenodoxin reductase) important for the activity of the CYP11 family and no relevant enzyme activity of the CYP11 family (in comparison to H295R cells) was detected in these cells. Therefore the G-402 cell line is uniquely suited as a host cell for the ectopic expression of enzymes from the CYP11 family.
# G-402 cells can be obtained from ATCC(CRL-1440) and were originally derived from a renal leiomyoblastoma.
# The expression plasmids contain the ORF for either human/cyno CYP11B1 or CYP11B2 under the control of a suitable promoter (CMV-promoter) and a suitable resistance marker (neomycin). Using standard techniques the expression plasmid is transfected into G-402 cells and these cells are then selected for expressing the given resistance markers. Individual cell-clones are then selected and assessed for displaying the desired enzymatic activity using 11-Deoxycorticosterone (Cyp11B2) or 11-Deoxycortisol (Cyp11B1) as a substrate.
# G-402 cells expressing CYP11 constructs were established as described above and maintained in McCoy's 5a Medium Modified, ATCC Catalog No. 30-2007 containing 10% FCS and 400 μg/ml G418 (Geneticin) at 37° C. under an atmosphere of 5% CO2/95% air.
# Cellular enzyme assays were performed in DMEM/F12 medium containing 2.5% charcoal treated FCS and appropriate concentration of substrate (0.3-10 uM 11-Deoxycorticosterone, 11-Deoxycortisol or Corticosterone). For assaying enzymatic activity, cells were plated onto 96 well plates and incubated for 16 h. An aliquot of the supernatant is then transferred and analyzed for the concentration of the expected product (Aldosterone for CYP11B2; Cortisol for CYP11B1). The concentrations of these steroids can be determined using HTRF assays from CisBio analyzing either Aldosterone or Cortisol.
# Inhibition of the release of produced steroids can be used as a measure of the respective enzyme inhibition by test compounds added during the cellular enzyme assay. The dose dependent inhibition of enzymatic activity by a compound is calculated by means of plotting added inhibitor concentrations (x-axes) vs. measured steroid/product level (y-axes). The inhibition is then calculated by fitting the following 4-parameter sigmoidal function (Morgan-Mercer-Flodin (MMF) model) to the raw data points using the least squares method:
# [formula] wherein, A is the maximum y value, B is the EC50 factor determined using XLFit, C is the minimum y value and D is the slope value.
# EC50 values for compounds claimed herein were tested with the G402-based assay system described. Cyp11B2 enzyme activity was tested in presence of 1 μM Deoxycorticosterone and variable amounts of inhibitors; Cyp11B1 enzyme activity was tested in presence of 1 μM Deoxycortisol and variable amounts of inhibitors.
Compound,EC50 (human CYP11B2),EC50 (human CYP11B1)
"CCC(=O)N[C@H]1CCCc2c1cncc2N1C(=O)c2ccc(Cl)cc2[C@H]1CC (single isomer, unassigned) [Example 352, N-[(S or R)-4-((R or S)-5-Chloro-3-ethyl-1-oxo-1,3-dihydro-isoindol-2-yl)-5,6,7,8-tetrahydro-isoquinolin-8-yl]-propionamide]",96.5 nM,39400 nM
"CCC(=O)N[C@@H]1CCCc2c1cncc2N1C(=O)c2ccc(Cl)cc2[C@@H]1CC (single isomer, unassigned) [Example 353, N-[(R or S)-4-((S or R)-5-Chloro-3-ethyl-1-oxo-1,3-dihydro-isoindol-2-yl)-5,6,7,8-tetrahydro-isoquinolin-8-yl]-propionamide]",396 nM,16200 nM
"CCC(=O)N[C@@H]1CCCc2c1cncc2N1C(=O)c2ccc(Cl)cc2[C@H]1CC (single isomer, unassigned) [Example 354, N-[(R or S)-4-((R or S)-5-Chloro-3-ethyl-1-oxo-1,3-dihydro-isoindol-2-yl)-5,6,7,8-tetrahydro-isoquinolin-8-yl]-propionamide]",12.2 nM,345 nM
"CC[C@@H]1c2cc(Cl)ccc2C(=O)N1c1cncc2c1CCC[C@@H]2NC(C)=O (single isomer, unassigned) [Example 355, N-[(S or R)-4-((R or S)-5-Chloro-3-ethyl-1-oxo-1,3-dihydro-isoindol-2-yl)-5,6,7,8-tetrahydro-isoquinolin-8-yl]-acetamide]",15.3 nM,8170 nM
"CC[C@H]1c2cc(Cl)ccc2C(=O)N1c1cncc2c1CCC[C@@H]2NC(C)=O (single isomer, unassigned) [Example 356, N-[(S or R)-4-((S or R)-5-Chloro-3-ethyl-1-oxo-1,3-dihydro-isoindol-2-yl)-5,6,7,8-tetrahydro-isoquinolin-8-yl]-acctamide]",2000 nM,737 nM
"CC[C@H]1c2cc(Cl)ccc2C(=O)N1c1cncc2c1CCC[C@H]2NC(C)=O (single isomer, unassigned) [Example 357, N-[(R or S)-4-((S or R)-5-Chloro-3-ethyl-1-oxo-1,3-dihydro-isoindol-2-yl)-5,6,7,8-tetrahydro-isoquinolin-8-yl]-acetamide]",98.2 nM,3220 nM
"CC[C@@H]1c2cc(Cl)ccc2C(=O)N1c1cncc2c1CCC[C@H]2NC(C)=O (single isomer, unassigned) [Example 358, N-[(R or S)-4-((R or S)-5-Chloro-3-ethyl-1-oxo-1,3-dihydro-isoindol-2-yl)-5,6,7,8-tetrahydro-isoquinolin-8-yl]-acetamide]",5 nM,433 nM
"CCC(=O)N[C@@H]1CCCc2c1cncc2N1C(=O)c2ccc(Cl)cc2[C@@H]1C (single isomer, unassigned) [Example 359, N-[(R or S)-4-((S or R)-5-Chloro-3-methyl-1-oxo-1,3-dihydro-isoindol-2-yl)-5,6,7,8-tetrahydro-isoquinolin-8-yl]-propionamide]",6 nM,411 nM
"CCC(=O)N[C@H]1CCCc2c1cncc2N1C(=O)c2ccc(Cl)cc2[C@H]1C (single isomer, unassigned) [Example 360, N-[(S or R)-4-((R or S)-5-Chloro-3-methyl-1-oxo-1,3-dihydro-isoindol-2-yl)-5,6,7,8-tetrahydro-isoquinolin-8-yl]-propionamide]",853 nM,16100 nM
"CCC(=O)N[C@@H]1CCCc2c1cncc2N1C(=O)c2ccc(Cl)cc2[C@H]1C (single isomer, unassigned) [Example 361, N-[(R or S)-4-((R or S)-5-Chloro-3-methyl-1-oxo-1,3-dihydro-isoindol-2-yl)-5,6,7,8-tetrahydro-isoquinolin-8-yl]-propionamide]",65.6 nM,9410 nM
"CCC(=O)N[C@H]1CCCc2c1cncc2N1C(=O)c2ccc(Cl)cc2[C@@H]1C (single isomer, unassigned) [Example 362, N-[(S or R)-4-((S or R)-5-Chloro-3-methyl-1-oxo-1,3-dihydro-isoindol-2-yl)-5,6,7,8-tetrahydro-isoquinolin-8-yl]-propionamide]",53.2 nM,6090 nM
"CC(=O)N[C@H]1CCCc2c1cncc2N1C(=O)c2ccc(Cl)cc2[C@H]1C (single isomer, unassigned) [Example 363, N-[(S or R)-4-((R or S)-5-Chloro-3-methyl-1-oxo-1,3-dihydro-isoindol-2-yl)-5,6,7,8-tetrahydro-isoquinolin-8-yl]-acetamide]",171 nM,2330 nM
"CC(=O)N[C@@H]1CCCc2c1cncc2N1C(=O)c2ccc(Cl)cc2[C@H]1C (single isomer, unassigned) [Example 364, N-[(R or S)-4-((R or S)-5-Chloro-3-methyl-1-oxo-1,3-dihydro-isoindol-2-yl)-5,6,7,8-tetrahydro-isoquinolin-8-yl]-acetamide]",130 nM,5570 nM
"CC(=O)N[C@H]1CCCc2c1cncc2N1C(=O)c2ccc(Cl)cc2[C@@H]1C (single isomer, unassigned) [Example 365, N-[(S or R)-4-((S or R)-5-Chloro-3-methyl-1-oxo-1,3-dihydro-isoindol-2-yl)-5,6,7,8-tetrahydro-isoquinolin-8-yl]-acetamide]",337 nM,15900 nM
"CC(=O)N[C@@H]1CCCc2c1cncc2N1C(=O)c2ccc(Cl)cc2[C@@H]1C (single isomer, unassigned) [Example 366, N-[(R or S)-4-((S or R)-5-Chloro-3-methyl-1-oxo-1,3-dihydro-isoindol-2-yl)-5,6,7,8-tetrahydro-isoquinolin-8-yl]-acetamide]",4.4 nM,82 nM
"CC[C@@H]1c2cc(Cl)ccc2C(=O)N1c1cncc2c1CC[C@@H]2NS(C)(=O)=O (single isomer, unassigned) [Example 367, N-[(S or R)-4-((R or S)-5-Chloro-3-ethyl-1-oxo-1,3-dihydro-isoindol-2-yl)-6,7-dihydro-5H-[2]pyrindin-7-yl]-methanesulfonamide]",62.1 nM,5240 nM
"CC[C@H]1c2cc(Cl)ccc2C(=O)N1c1cncc2c1CC[C@H]2NS(C)(=O)=O (single isomer, unassigned) [Example 368, N-[(R or S)-4-((S or R)-5-Chloro-3-ethyl-1-oxo-1,3-dihydro-isoindol-2-yl)-6,7-dihydro-5H-[2]pyrindin-7-yl]-methanesulfonamide]",12.1 nM,723 nM
